In PubChem BioAssay AID651717 (Broad Institute, 2012) one finds AC40 data, which are given here for 108 molecules.

The test system of this test is mESC Bmi1-luciferase reporter, firefly/renilla ratio, 24 h. The test is described as follows: Bmi1-luciferase reporter activators in mESC, dose response, esBAF inhibitor project, mouse embryonic stem cells, cherry-pick (AID 651717).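 Note: luciferase knocked into Bmi1 locus with EF-1a renilla as cell number control; rising ratio signals esBAF inhibition which derepresses Bmi1.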
Consider `c1ccc(Nc2nc(-c3ccncc3)cs2)cc1`, for which the AC40 was 2.71 µM. The figure for `COc1ccc(-c2cc3cc(OC)c(OC)cc3cn2)cc1` is 6.22 µM; for `CN(c1cccc(NC(=O)c2ccc(C(C)(C)C)cc2)c1)S(C)(=O)=O` it is 2.97 µM. The value for `COc1ccc(C(=O)/C=C(\C)Nc2ccc3c(c2)OCO3)cc1` was 1.85 µM; that for `O=C1C(=C2CCc3ccccc32)Cc2ccccc21` was 0.363 µM; that for `COc1ccc(N=Cc2c(O)[nH]c3ccccc23)cc1OC` was 3.05 µM. The figure for `COc1ccc(CNC(=O)Nc2cccc(C)c2)cc1` is 5.8 µM; for `Cn1c(CSc2ccccc2)c(C#N)c2ccccc21` it is 6.77 µM; for `O=C(NCCc1ccc(F)cc1)c1ccc2c(=O)n3c(nc2c1)CCC3` it is 5.89 µM. As for `O/N=C\c1cnc(N2CCN(c3ccccc3)CC2)s1`, the AC40 is 2.47 µM. For `O=C(OCc1ccccc1)N1CCC2CC1c1cc(/C=C/CCCSc3ncccn3)ccc12` (stereo not drawn), the AC40 was 12.2 µM. The figure for `CC(=O)Nc1cc2c3c(cccc3c1)-c1ccccc1-2` is 5.23 µM; for `O=C(CCc1nnc(C2(c3ccc(Cl)cc3)CCC2)o1)N1CCCC1` it is 3.99 µM; for `Cc1ccc(-n2nnc(-c3cccnc3)n2)cc1` it is 0.926 µM. The value for `COC(=O)c1ccc(COC(=O)CNC(=O)c2ccc(OC)cc2)cc1` was 6.87 µM; that for `Cc1csc(NC(=O)Cc2ccc(F)cc2)n1` was 7.58 µM. The value for `Cc1csc(Nc2nc(N)c(C(=O)Nc3ccccc3)o2)n1` was 3.69 µM; that for `O=C(COC(=O)c1cccc(S(=O)(=O)N2CCOCC2)c1)Nc1nc(-c2ccccc2Cl)cs1` was 16.2 µM; that for `C=CCn1c(NCc2ccc(OC)cc2O)nc2ccccc21` was 5.58 µM.

Take `Cn1cccc1C(=O)OCc1ccc(C(C)(C)C)cc1`: the AC40 is 4.64 µM. As for `O=C(Nc1ccccn1)c1ccc(Cl)c(S(=O)(=O)N2CCCC2)c1`, the AC40 is 14.6 µM. Regarding `O=C(NC1CCCCCCC1)c1c(O)c2ccccc2[nH]c1=O`, the AC40 was 2.19 µM.

With `COc1ccc(CC(=O)Nc2ccc(-c3cn4ccc(C)cc4n3)cc2)cc1`, the AC40 is 18.8 µM.

For the molecule `CC(C)NC(=O)CCc1nnc(Cc2cccc(C(F)(F)F)c2)o1`, the AC40 was 15.3 µM.

Regarding `CCCC1c2ccc(C)n2CCN1C(=O)Nc1ccccc1Cl` (stereo not drawn), the AC40 was 6.07 µM. On to `Clc1cccc2sc(N3CCCCC3)nc12`, for which the AC40 is 5.75 µM. As for `CN(C)c1ccc(-c2ccc3oc(-c4ccsc4)cc(=O)c3c2)cn1`, the AC40 was 2.73 µM. The value for `O=C(Nc1cccc2ccccc12)c1cnccn1` was 6.43 µM; that for `N#CC(c1ccccc1O)N1N=C(c2ccccc2)CC1c1ccccc1` (stereo not drawn) was 1.43 µM. In the case of `CN(C)c1ccccc1-c1csc(N2CCC(C(N)=O)CC2)n1`, the AC40 was below 0.26 µM. Take `O=C(Nc1ccc(Cl)c(Cl)c1)c1ccccc1NC(=O)C1CC=CCC1C(=O)O` (stereo not drawn): the AC40 is 7.6 µM. The figure for `C=CCNc1nc(Cl)nc(Nc2ccccc2)n1` is 0.936 µM; for `Cc1cc2oc(=O)cc(CN(C)Cc3ccccc3F)c2cc1Cl` it is 4.33 µM; for `C=CCn1cccc(C(=O)Nc2ccc(Cl)cc2)c1=O` it is 3.88 µM. The figure for `CCOC(=O)C1=C(CSc2nc(-c3ccccc3)ccc2C#N)OC(N)=C(C#N)C1c1cccnc1` (stereo not drawn) is 2.89 µM; for `Clc1ccc(-c2csc(N3CCSCC3)n2)cc1` it is 5.65 µM. The figure for `O=C1NCCC/C1=N/Nc1cc(F)ccc1F` is 2.6 µM; for `COc1cc(/C=C/c2nc3ccccc3c(=O)[nH]2)ccc1OC(F)F` it is 1.6 µM; for `O=C(Nc1ccccc1Cl)NC1CCCCCCC1` it is 5.67 µM.

Consider `CCC(C)c1ccc(NC(=O)C2CC2)cc1` (stereo not drawn), for which the AC40 was 5.85 µM. The figure for `CC(C)C(=O)N1CCN(c2nc3ccc(Cl)cc3s2)CC1` is 3.33 µM; for `COc1ccc(-c2csc(Nc3cc(C)ccn3)n2)cc1C` it is 1.91 µM. Regarding `O=C(c1cc2ccccc2oc1=O)N(Cc1cccs1)C1CCS(=O)(=O)C1` (stereo not drawn), the AC40 is 3.94 µM. The value for `CC(C)(C)NC(=O)Cn1nnc(-c2ccccc2Cl)n1` was 5.29 µM; that for `C=CCn1c(=O)c(C(=O)Nc2ccc(C)cc2)c(O)c2ccccc21` was 13.1 µM. As to `C/C(=N\OCc1ccc(C#N)cc1)c1ccc(S(=O)(=O)N(C)C)cc1`, the AC40 was 7.91 µM. The value for `O=C(CC(=O)c1ccccc1)c1ccccc1` was 2.47 µM; that for `COc1cc2ccccc2cc1C(=O)Nc1ccncc1` was 5.2 µM; that for `Fc1ccc2cc(-c3ccsc3)ncc2c1` was 3.16 µM. The value for `COc1cccc(Nc2nc(-c3sc(C)nc3C)cs2)c1` was 8.61 µM.

With `C/C(=N\NC(=O)c1cccs1)c1ccc2ccccc2c1`, the AC40 is 12 µM. The value for `Cc1ccc(NC(=O)c2ccc3c(c2)CCN3S(C)(=O)=O)cc1` was 10.5 µM. For `COc1ccc(-n2nc(C(=O)NCC(=O)N3CCN(c4ccccc4)CC3)c3ccccc3c2=O)c(OC)c1`, the AC40 was 3.37 µM.

On to `CC(=O)Nc1ccc2nc(C)n(Cc3ccc(Cl)cc3)c(=O)c2c1`, for which the AC40 was 4.21 µM.

For the molecule `Oc1ccccc1/C=N/N1CCN(c2ccccn2)CC1`, the AC40 was 2.75 µM. The figure for `COc1ccc(CNC(=O)c2ccc3ccccc3n2)cc1` is 29.4 µM; for `Cc1ccc(NC(=O)C2CCN(S(=O)(=O)c3ccc4ccccc4c3)CC2)nc1` it is 6.53 µM; for `CCCN1CCN(CCCNC(=O)c2ccc3nc(N4CCCCC4)sc3c2)CC1` it is 13.3 µM.

Take `O=C(Nc1ccc2c(c1)OCO2)c1cnc(Cl)c(Cl)c1`: the AC40 is 1.74 µM. The figure for `CNc1cncc(-c2cccc(OC)c2F)n1` is 1.24 µM; for `Cc1ccc2[nH]c(C(=O)N3CCCCC3)cc2c1` it is 6.79 µM; for `CC(C)c1ccc(CNc2ncccn2)cc1` it is 2.82 µM. Regarding `CC(C)C1CCN(C(=O)C2CCC(=O)N(C3CCCCCC3)C2)CC1` (stereo not drawn), the AC40 is 9.83 µM.

Take `CCCC1(C)Nc2ccccc2-c2nc3ccccc3n21` (stereo not drawn): the AC40 is 11.3 µM. In the case of `Cc1ccc(NC(=O)Nc2ccc(F)cc2)cc1Cl`, the AC40 is 3.4 µM. Take `CCN(C(=O)c1cc2c(=O)n3ccccc3nc2s1)C1CCCCC1`: the AC40 is 14 µM.

Turning to `COc1ccc(OCc2cc(C(=O)N3C[C@H]4CC[C@H]3C4)no2)c(Cl)c1`, the AC40 was 9.24 µM. `COc1ccc(Cc2nnc(NC(=O)c3ccc(OC)cc3OC)s2)cc1`: the AC40 is 12.5 µM. `NC(=O)c1ccccc1-c1nc(-c2ccccc2)no1`: the AC40 is 4.23 µM.

`CN(C)c1ccc(C(=O)c2ccccc2)cc1`: the AC40 was 2.69 µM.

On to `Cc1ccc(Cl)c2c(N=Nc3ccccc3)c(O)[nH]c12`, for which the AC40 was 0.93 µM. The figure for `O=C(CCNS(=O)(=O)c1cccs1)N1CCc2ccccc2C1` is 6.72 µM.

On to `O=C(Cn1cc(C(F)(F)F)cc(Cl)c1=O)NCc1ccc(F)cc1`, for which the AC40 is 7.38 µM. The figure for `CCCC(=O)N1CCN(c2nc3ccc(Br)cc3s2)CC1` is 1.7 µM.

As for `CC(C)c1ccc(C(O)c2cnc(C(C)C)n2C)cc1` (stereo not drawn), the AC40 is 4.11 µM. As to `O=C(Nc1ccc(SC(F)F)cc1)C12CCC(CC1)C2`, the AC40 is 5.66 µM. The value for `Cc1cc(-c2nnc(-c3cccc(C(F)(F)F)c3)o2)no1` was 6.58 µM; that for `COc1ccc(CNC(=O)COc2ccccc2C(=O)c2cnn(-c3ccccc3)c2)cc1OC` was 0.642 µM. The value for `Clc1ccc(N/N=C/c2cccnc2)cc1` was 2.59 µM. For `Cc1ccc(C2/C(=C(/O)c3cnn(-c4ccccc4)c3C)C(=O)C(=O)N2CCN2CCOCC2)o1` (stereo not drawn), the AC40 is 8.69 µM. The value for `CN(CC(=O)Nc1ccccc1Br)C(=O)c1cc2c(s1)CCCCC2` was 2.75 µM; that for `CCC(C)NC(=O)c1cc(CC(C)C)on1` (stereo not drawn) was 6.83 µM.

Regarding `OC(c1ccccc1)c1nc(-c2ccc3c(c2)OCO3)cs1` (stereo not drawn), the AC40 was 3.37 µM.

With `O=c1sc(N2CCN(c3ccc(F)cc3)CC2)nc2ccsc12`, the AC40 was 1.76 µM. The figure for `Cc1ccc(NC(=O)C(=O)Nc2ccc(C)cn2)nc1` is 0.497 µM; for `O=C(NCCCc1ccccc1)c1ccccc1O` it is 10.7 µM. The value for `Cc1cc2ncn(C(=O)N3CCC(C)CC3)c2cc1C` was 7.84 µM; that for `Cc1ccc(C)c(OCc2cc(C(=O)N3CC[C@@H]4CCCC[C@H]4C3)no2)c1` was 7.9 µM; that for `CO[C@H]1CN(C)C(=O)c2ccc(NC(=O)Nc3ccc4c(c3)OCO4)cc2OC[C@@H](C)NC[C@H]1C` was 3.55 µM. The value for `CCSc1nnc(NC(=O)c2ccc3nc[nH]c3c2)s1` was 12.7 µM.

Regarding `Fc1cccc(-c2ncc(-c3ccccc3)o2)c1`, the AC40 was 0.768 µM.

With `COc1ccccc1C(=O)NCC(=O)Nc1ccc2c(c1)CCC2`, the AC40 was 3.24 µM. The figure for `Cc1csc(NC(=O)Nc2ccc(Cl)cc2)n1` is 2.68 µM.

Turning to `Cc1nc(C)c(-c2csc(Nc3ccc(Cl)cn3)n2)s1`, the AC40 was 8.77 µM. Consider `CCCCSc1nnc(-c2c[nH]c3ccccc23)n1C`, for which the AC40 was 6.69 µM. On to `Cc1ccc(O)c(NC(=O)c2ccc3c(c2)C(=O)N(CC(C)C)C3=O)c1`, for which the AC40 was 1.23 µM. The figure for `COC(=O)c1ccc(NC(=O)c2cc3sccc3n2C)cc1` is 6.75 µM; for `Clc1ccc(-c2nc3ccc(Cl)cn3c2Cc2ccsc2)cc1` it is 9.87 µM; for `Cc1ccc(C)c(NC(=O)c2cc(-c3ccccc3O)n[nH]2)c1` it is 11.5 µM.

Consider `Cc1ccccc1-c1nnc(-c2cccc3ccccc23)o1`, for which the AC40 is 0.85 µM. Turning to `O=C(O)CCc1ccc(-c2ccc(Br)cc2)n1-c1cccc(O)c1`, the AC40 is 10.8 µM. The value for `O=C(CN1CCCCCC1)Nc1ccc(Br)cc1Br` was 8.51 µM; that for `CC(C)C1C(=O)N(Cc2cn(CCC3OCCCO3)nn2)CCS(=O)(=O)N1Cc1ccc(-c2ccc(Cl)nc2)cc1` (stereo not drawn) was 17.8 µM; that for `O=C(CC(=O)c1ccccc1)Nc1ccccc1` was 3.94 µM. The figure for `COc1ccc(-c2cc(C(=O)Nc3ccc(NC(C)=O)cc3)[nH]n2)c(C)c1` is 1.21 µM; for `Cc1ccc(OCc2cc(C(=O)N(C)CCc3ccccn3)no2)cc1C` it is 2.28 µM; for `CC(=O)Nc1ccc2c(c1)Cc1c(F)cccc1-2` it is 0.977 µM. In the case of `N#Cc1c(/N=C/c2cccs2)sc2c1CCC2`, the AC40 was 0.897 µM.
